According to patent US7618816B2, “Metal-binding therapeutic peptides” (Ontherix, Inc., priority 2005, dated 2009):
Where “and” joins values, the source holds several entries; their conditions need not be identical. Equal values may be shown once. Where a SMILES comes first, the peptide text is derived from it. Where no end group is shown, it is not given here. The star is where a group is joined. Biotin = O=C1N[C@H]2[C@H](CS[C@H]2CCCCC(=O)*)N1

How the values were obtained:
CCRF-CEM = experiment: Cell survival, mutants of MDOKSH peptide; assay type: cell-based; settings: for CELL SURVIVAL, CCRF-CEM: expressed relative to the activity of the parental peptide MDOKSH
Excerpt: (§1) In order to maximize the effects of cytotoxic peptides, alanine scanning of one peptide (MDOKSH) was undertaken as an illustration. 48 mutants were synthesized, purified and tested in CCRF-CEM and MCF-7. The cytotoxicity of the 48 peptides was strongly correlated in the two cell line assay systems (r=0.606). […] The core MBD sequence may, if desired, be excluded from the region to be explored by mutagenesis, in order to expedite the experiment.

MCF-7 [1] = experiment: Cell survival, mutants of MDOKSH peptide; assay type: cell-based; set-up: CELL SURVIVAL, MCF-7: unit not given here; settings: for CELL SURVIVAL, MCF-7: expressed relative to the activity of the parental peptide MDOKSH
Excerpt: as §1

cancer cells = experiment: Selective cytotoxicity, cancer cells versus normal counterparts; assay type: cell-based, human
Excerpt: (§2) Also, peptides such as NFKB and CSK are of interest, targeting stress-coping mechanisms such as inflammation. The breast cancer lines tested are HS578T, MX-1, MDA-MB231, MDA-MB435 and MCF7. Leukemia cell lines tested for cytotoxicity effects with these MBD-tagged peptides are CCRF-CEM, RPMI-8226 and MOLT-4. Overall, MCF-7 and CCRF-CEM yield the most consistent data and the strongest effect across the board (Table 12). In addition, elevated levels of cytotoxicity are observed when multiple peptides are combined while keeping the overall amount of peptide added constant. Cytotoxicity increases with the number of peptides added per cocktail and is further enhanced by combining peptide cocktail treatment with paclitaxel.

MDA-MB435 = experiment: Cytotoxicity of MBD therapeutic peptides; assay type: cell-based; settings: relative to equal dose of control MBD peptide, only p < 0.05 shown, 1-4 experiments
Excerpt: as §2

SR = experiment: Cytotoxicity of MBD therapeutic peptides; assay type: cell-based; settings: relative to equal dose of control MBD peptide, only p < 0.05 shown, 1-4 experiments
MCF-7 [2] = experiment: Cytotoxicity of MBD therapeutic peptides; assay type: cell-based, human; settings: relative to equal dose of control MBD peptide, only p < 0.05 shown, 1-4 experiments
Excerpt: as §2

MOLT-4 = experiment: Cytotoxicity of MBD therapeutic peptides; assay type: cell-based, human; settings: relative to equal dose of control MBD peptide, only p < 0.05 shown, 1-4 experiments
Excerpt: as §2

MDA-MB231 = experiment: Cytotoxicity of MBD therapeutic peptides; assay type: cell-based, human; settings: relative to equal dose of control MBD peptide, only p < 0.05 shown, 1-4 experiments
Excerpt: as §2

RPMI-8826 = experiment: Cytotoxicity of MBD therapeutic peptides; assay type: cell-based, human; settings: relative to equal dose of control MBD peptide, only p < 0.05 shown, 1-4 experiments
Excerpt: as §2

[3] = test system: shRNA containing the lambda nutR hairpin loop; experiment: Bio-KGF binding of shRNA on Ni-NTA plate, Ribogreen; settings: for Ribogreen Fluorescence: mean of eight readings
Excerpt: Peptide Bio-KGF binds shRNA: Bio-KGF peptide was synthesized by Genemed Synthesis, Inc. (S. San Francisco, Calif.) as a 40-mer containing an MBD sequence and an RNA-hairpin binding domain from the N-terminus of bacteriophage lambda N protein: Bio-KGF: (“N”-terminal biotin) . . . KGF YKK KQC RPS KGR KRG FCW AQT RRR ERR AEK QAQ WKA A . . . (“C” terminus) (SEQ ID NO: 11)
An shRNA designed to silence the human beclin gene was designed to include a hairpin sequence corresponding to the NutR box of bacteriophage lambda mRNA (the binding target for the Bio-KGF peptide) and was amplified using the Silencer™ siRNA
Various molar excess amounts of Bio-KGF (ranging from 63 pg to 2 ug per well; similar results were obtained across this range) were attached to a Ni-NTA plate (Qiagen Inc., Carlsbad, Calif. for 1 hour and blocked overnight with 3% BSA at 4 degrees C. in the refrigerator, and washed with PBS/Tween and TE buffers. RNA dilutions were added in TE buffer, incubated for 30 min on shaker, then for 30 min on bench at room temperature. After one wash with TE buffer, Ribogreen reagent (Ribogreen RNA Quantitation Reagent and Kit from Molecular Probes/Invitrogen) was added to the wells, incubated 5 minutes, and fluorescence was read on a fluorescent plate reader. The results are listed in Table 8 (each number is a mean of eight readings): […]

CC(C)C[C@H](NC(=O)[C@H](CC(=O)O)NC(=O)[C@H](Cc1c[nH]c2ccccc12)NC(=O)[C@H](Cc1ccc(O)cc1)NC(=O)[C@H](CC(C)C)NC(=O)[C@@H]1CCCN1C(=O)[C@H](CCCCN)NC(=O)[C@H](Cc1c[nH]c2ccccc12)NC(=O)[C@H](CS)NC(=O)[C@H](Cc1ccccc1)NC(=O)CNC(=O)[C@H](CCCNC(=N)N)NC(=O)[C@H](CCCCN)NC(=O)[C@H](CCCNC(=N)N)NC(=O)CNC(=O)[C@H](CCCCN)NC(=O)[C@H](CO)NC(=O)[C@@H]1CCCN1C(=O)[C@H](CCCNC(=N)N)NC(=O)[C@H](CS)NC(=O)[C@H](CCC(N)=O)NC(=O)[C@H](CCCCN)NC(=O)[C@H](CCCCN)NC(=O)[C@H](CCCCN)NC(=O)[C@H](Cc1ccc(O)cc1)NC(=O)[C@H](Cc1ccccc1)NC(=O)CNC(=O)[C@H](CCCCN)NC(=O)[C@H](CCCCN)NC(=O)CCCC[C@@H]1SC[C@@H]2NC(=O)N[C@@H]21)C(=O)N[C@@H](Cc1ccc(O)cc1)C(=O)N[C@@H](CCC(=O)O)C(=O)O [MDOKSH] (Biotin-KKGFYKKKQCRPSKGRKRGFCWKPLYWDLYE-OH)
CELL SURVIVAL, CCRF-CEM (CCRF-CEM): 100
CELL SURVIVAL, MCF-7 (MCF-7 [1]): 100

CC(C)C[C@H](NC(=O)[C@H](C)NC(=O)[C@H](CCCCN)NC(=O)[C@H](Cc1c[nH]c2ccccc12)NC(=O)[C@H](CS)NC(=O)[C@H](Cc1ccccc1)NC(=O)CNC(=O)[C@H](CCCNC(=N)N)NC(=O)[C@H](CCCCN)NC(=O)[C@H](CCCNC(=N)N)NC(=O)CNC(=O)[C@H](CCCCN)NC(=O)[C@H](CO)NC(=O)[C@@H]1CCCN1C(=O)[C@H](CCCNC(=N)N)NC(=O)[C@H](CS)NC(=O)[C@H](CCC(N)=O)NC(=O)[C@H](CCCCN)NC(=O)[C@H](CCCCN)NC(=O)[C@H](CCCCN)NC(=O)[C@H](Cc1ccc(O)cc1)NC(=O)[C@H](Cc1ccccc1)NC(=O)CNC(=O)[C@H](CCCCN)NC(=O)[C@H](CCCCN)NC(=O)CCCC[C@@H]1SC[C@@H]2NC(=O)N[C@@H]21)C(=O)N[C@@H](Cc1ccc(O)cc1)C(=O)N[C@@H](Cc1c[nH]c2ccccc12)C(=O)N[C@@H](CC(=O)O)C(=O)N[C@@H](CC(C)C)C(=O)N[C@@H](Cc1ccc(O)cc1)C(=O)N[C@@H](CCC(=O)O)C(=O)O [Mutant 27] (Biotin-KKGFYKKKQCRPSKGRKRGFCWKALYWDLYE-OH)
Cytotoxicity versus parental MDOKSH (in words) (CCRF-CEM; CCRF-CEM): greatly enhanced cytotoxicity
Cytotoxicity versus parental MDOKSH (in words) (MCF-7 [1]; MCF-7): greatly enhanced cytotoxicity

CC(C)C[C@H](NC(=O)[C@H](CC(C)C)NC(=O)[C@H](CCCCN)NC(=O)[C@H](Cc1c[nH]c2ccccc12)NC(=O)[C@H](CC(C)C)NC(=O)[C@H](CC(=O)O)NC(=O)[C@H](CO)NC(=O)[C@H](Cc1ccccc1)NC(=O)[C@@H](NC(=O)[C@H](CCC(=O)O)NC(=O)CCCC[C@@H]1SC[C@@H]2NC(=O)N[C@@H]21)[C@@H](C)O)C(=O)N[C@@H](CCCCN)C(=O)N[C@@H](CCCCN)C(=O)NCC(=O)N[C@@H](Cc1ccccc1)C(=O)N[C@@H](Cc1ccc(O)cc1)C(=O)N[C@@H](CCCCN)C(=O)N[C@@H](CCCCN)C(=O)N[C@@H](CCCCN)C(=O)N[C@@H](CCC(N)=O)C(=O)N[C@@H](CS)C(=O)N[C@@H](CCCNC(=N)N)C(=O)N1CCC[C@H]1C(=O)N[C@@H](CO)C(=O)N[C@@H](CCCCN)C(=O)NCC(=O)N[C@@H](CCCNC(=N)N)C(=O)N[C@@H](CCCCN)C(=O)N[C@@H](CCCNC(=N)N)C(=O)NCC(=O)N[C@@H](Cc1ccccc1)C(=O)N[C@@H](CS)C(=O)N[C@@H](Cc1c[nH]c2ccccc12)C(=O)O [PEP-1] (Biotin-ETFSDLWKLLKKGFYKKKQCRPSKGRKRGFCW-OH)
Cytotoxic effect on cancer cells versus normal counterparts (in words) (cancer cells): strong cytotoxic effect on cancer cells but not their human counterparts

CC[C@H](C)[C@H](NC(=O)[C@H](CC(=O)O)NC(=O)[C@H](CO)NC(=O)[C@H](Cc1ccccc1)NC(=O)[C@@H](NC(=O)[C@H](CCC(=O)O)NC(=O)CCCC[C@@H]1SC[C@@H]2NC(=O)N[C@@H]21)[C@@H](C)O)C(=O)N[C@@H](Cc1c[nH]c2ccccc12)C(=O)N[C@@H](CCCCN)C(=O)N[C@@H](CC(C)C)C(=O)N[C@@H](CC(C)C)C(=O)N[C@@H](CCCCN)C(=O)N[C@@H](CCCCN)C(=O)NCC(=O)N[C@@H](Cc1ccccc1)C(=O)N[C@@H](Cc1ccc(O)cc1)C(=O)N[C@@H](CCCCN)C(=O)N[C@@H](CCCCN)C(=O)N[C@@H](CCCCN)C(=O)N[C@@H](CCC(N)=O)C(=O)N[C@@H](CS)C(=O)N[C@@H](CCCNC(=N)N)C(=O)N1CCC[C@H]1C(=O)N[C@@H](CO)C(=O)N[C@@H](CCCCN)C(=O)NCC(=O)N[C@@H](CCCNC(=N)N)C(=O)N[C@@H](CCCCN)C(=O)N[C@@H](CCCNC(=N)N)C(=O)NCC(=O)N[C@@H](Cc1ccccc1)C(=O)N[C@@H](CS)C(=O)N[C@@H](Cc1c[nH]c2ccccc12)C(=O)O [PEP-3] (Biotin-ETFSDIWKLLKKGFYKKKQCRPSKGRKRGFCW-OH)
% viability @ 48 hr/25 ug/ml peptide, MDA-MB435 (MDA-MB435): 16.0 ± 2.0% and 27.0 ± 3.9%
% viability @ 48 hr/25 ug/ml peptide, SR (SR): 75.9 ± 15.7%
Cytotoxic effect on cancer cells versus normal counterparts (in words) (cancer cells): strong cytotoxic effect on cancer cells but not their human counterparts
% viability @ 48 hr/25 ug/ml peptide, MCF-7 (MCF-7 [2]): 27.5 ± 15.2% and 30.6 ± 5.7% and 21.7 ± 1.5%
% viability @ 48 hr/25 ug/ml peptide, MOLT-4 (MOLT-4): 73.0 ± 5.5% and 58.3 ± 16.5%
% viability @ 48 hr/25 ug/ml peptide, MDA-MB231 (MDA-MB231): 32.9 ± 1.7%

AKGFYKKKQCRPSKGRKRGFCWKPLYWDLYE [Mutant 48]
CELL SURVIVAL, CCRF-CEM (CCRF-CEM): 71.8 ± 10.7
CELL SURVIVAL, MCF-7 (MCF-7 [1]): 61.6 ± 3.1

Biotin-KKGFYKKKQCRPSKGRKRGFCWARIDDMSSRIDDLEKNIADL (cysteines drawn unpaired) [M9HSBP1]
% viability @ 48 hr/25 ug/ml peptide, MOLT-4 (MOLT-4): 77.1 ± 20.3%
% viability @ 48 hr/25 ug/ml peptide, RPMI-8826 (RPMI-8826): 77.7 ± 5.2%

KGF YKK KQC RPS KGR KRG FCW AQT RRR ERR AEK QAQ WKA A (Biotin-KGFYKKKQCRPSKGRKRGFCWAQTRRRERRAEKQAQWKAA; cysteine pairing not given here) [Bio-KGF]
Binding of shRNA (in words) [3]: binds the shRNA
Ribogreen Fluorescence ([3]; 2.7 ng shRNA per well): 853 ± 600
Ribogreen Fluorescence ([3]; 5.5 ng shRNA per well): 2058 ± 781
Ribogreen Fluorescence ([3]; 11 ng shRNA per well): 6016 ± 2977
Ribogreen Fluorescence ([3]; 22 ng shRNA per well): 11924 ± 3650
Ribogreen Fluorescence ([3]; 44 ng shRNA per well): 42053 ± 12769
Ribogreen Fluorescence ([3]; 88 ng shRNA per well): 81819 ± 24656

KKGFYKKKQCRPSKGRKRGFCWAPLYWDLYE [Mutant 28]
CELL SURVIVAL, CCRF-CEM (CCRF-CEM): 60.1 ± 11.1
CELL SURVIVAL, MCF-7 (MCF-7 [1]): 52.7 ± 11.7

KKGFYKKKQCRPSKGRKRGFCWKPLYWALYE [Mutant 23]
CELL SURVIVAL, CCRF-CEM (CCRF-CEM): 74.5 ± 8.0
CELL SURVIVAL, MCF-7 (MCF-7 [1]): 58.8 ± 8.1

KKGFYKKKQCRPSKGRKRGFCWKPLYWDLYEI [Mutant 6]
CELL SURVIVAL, CCRF-CEM (CCRF-CEM): 62.3 ± 5.0
CELL SURVIVAL, MCF-7 (MCF-7 [1]): 68.5 ± 6.5

KKGFYKKKQCRPSKGRKRGFCWKPLYWDLYEM [Mutant 9]
CELL SURVIVAL, CCRF-CEM (CCRF-CEM): 63.8 ± 4.6
CELL SURVIVAL, MCF-7 (MCF-7 [1]): 56.8 ± 8.1

KKGFYKKKQCRPSKGRKRGFCWKPLYWDLYEP [Mutant 11]
CELL SURVIVAL, CCRF-CEM (CCRF-CEM): 64.8 ± 7.2
CELL SURVIVAL, MCF-7 (MCF-7 [1]): 59.6 ± 10.7
